This note sets out measurements from patent US7608619B2, “Substituted oxazole compounds with analgesic activity” (Gruenenthal GmbH, priority 2005, dated 2009).

The first assay deals with T1, human μ-opiate receptor (Homo sapiens, UniProt P35372).
T1 construct: purchased Nen company, Zaventem, Belgium RB-HOM; host or cells: CHO-K1 cells (membrane preparation)
T1 sequence (P35372 whole entry): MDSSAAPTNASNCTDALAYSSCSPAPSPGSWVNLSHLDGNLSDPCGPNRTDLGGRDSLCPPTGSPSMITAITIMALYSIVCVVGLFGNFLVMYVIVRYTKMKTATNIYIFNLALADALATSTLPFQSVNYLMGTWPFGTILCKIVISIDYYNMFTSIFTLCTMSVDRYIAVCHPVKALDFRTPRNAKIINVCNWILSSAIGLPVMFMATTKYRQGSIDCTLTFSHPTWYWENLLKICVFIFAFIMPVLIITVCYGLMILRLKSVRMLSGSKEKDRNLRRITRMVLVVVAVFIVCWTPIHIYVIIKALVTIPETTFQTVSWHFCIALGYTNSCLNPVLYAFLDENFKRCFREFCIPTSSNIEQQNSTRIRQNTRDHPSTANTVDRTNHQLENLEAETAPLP
As to the kind of experiment: Affinity for the human μ-opiate receptor ([3H]-naloxone displacement, SPA, CHO-K1 membrane preparation). As to conditions: test substance 1 μmole/l; displacement of 1 nmole/l [3H]-naloxone; percentage inhibition of the specific binding. How it is done: Method for Determining the Affinity for the Human μ-Opiate Receptor
The receptor affinity for the human μ-opiate receptor is determined in a homogeneous batch in microtiter plates. For this purpose dilution series of the substances to be tested are incubated for 90 minutes at room temperature with a receptor membrane preparation (15-40 μg protein/250 μl incubation batch) of CHO-K1 cells, which express the human μ-opiate receptor (RB-HOM receptor membrane preparation from the Nen company, Zaventem, Belgium), in the presence of 1 nmole/l of the radioactive ligand [^3H]-naloxone (NET719, Nen company, Zaventem, Belgium) and 1 mg WGA-SPA beads (wheat germ agglutinin SPA beads from Amersham/Pharmacia, Freiburg, Germany) in a total volume of 250 μl. 50 mmole/l of Tris-HCl supplemented with 0.05% sodium azide and with 0.06% bovine serum albumin is used as incubation buffer. In order to determine the non-specific binding, 25 μmole/l of naloxone is additionally added. After the end of the 90 minutes' incubation time the microtiter plates are centrifuged for 20 minutes at 1000 g and the radioactivity is measured in a beta counter (Microbeta-Trilux, PerkinElmer Wallac, Freiburg, Germany). The percentage displacement of the radioactive ligand from its binding to the human μ-opiate receptor at a concentration of the test substances of 1 μmole/l is determined and is given as percentage inhibition of the specific binding.
With `CN(Cc1ccccc1)c1oc(C(C2CCC(C(c3ccc(Cl)cc3)N(C)C)CC2)N(C)c2ccccc2)nc1Cc1ccccc1` (centres unmarked) [compound 22, Benzyl-{4-benzyl-2-[{4-[(4-chlorophenyl)-dimethylaminomethyl]-cyclohexyl}-(methylphenylamine)-methyl]-oxazol-5-yl}-methylamine], the “μ-opioid receptor, % inhibition [1 μM]” value stood at 64%.

Still in this assay, the particulars now being: test substance 1 μmole/l; displacement of 1 nmole/l [3H]-naloxone; percentage inhibition of the specific binding; read-out: μ-opioid receptor, % inhibition [1 μM].
As for `CN(C)C(c1ccc(F)cc1)C1CCC(C(c2nc(Cc3ccccc3)c(N3CCCC3)o2)N2CCCCC2)CC1` (centres unmarked) [compound 17, [{4-[(4-benzyl-5-pyrrolidin-1-yl-oxazol-2-yl)-piperidin-1-yl-methyl]-cyclohexyl}-(4-fluorophenyl)-methyl]-dimethylamine], the inhibition at 1 µM is 76%. `CN(C)C(c1ccc(F)cc1)C1CCC(C(c2nc(Cc3ccccc3)c(N3CCOCC3)o2)N(C)c2ccccc2)CC1` (centres unmarked) [compound 18, ((4-benzyl-5-morpholin-4-yl-oxazol-2-yl)-{4-[dimethylamino-(4-fluorophenyl)-methyl]-cyclohexyl}-methyl)-methylphenylamine]: the inhibition at 1 µM was 65%. `CC1CCN(c2oc(C(C3CCC(C(c4ccc(F)cc4)N(C)C)CC3)N(C)c3ccccc3)nc2Cc2ccccc2)CC1` (centres unmarked) [compound 19, ([4-benzyl-5-(4-methylpiperidin-1-yl)-oxazol-2-yl]-{4-[dimethylamino-(4-fluorophenyl)-methyl]-cyclohexyl}-methyl)-methylphenylamine]: the inhibition at 1 µM worked out at 63%. The same measure, in the same setting: the value for `CCN(CC)C(c1nc(Cc2ccccc2)c(N2CCC(C)CC2)o1)C1CCC(C(c2ccc(Cl)cc2)N(C)C)CC1` (centres unmarked) [compound 20, ([4-benzyl-5-(4-methylpiperidin-1-yl)-oxazol-2-yl]-{4-[(4-chlorophenyl)-dimethylaminomethyl]-cyclohexyl}-methyl)-diethylamine] was 63%; that for `CCN(CC)C(c1nc(Cc2ccccc2)c(N(C)Cc2ccccc2)o1)C1CCC(C(c2ccc(Cl)cc2)N(C)C)CC1` (centres unmarked) [compound 21, Benzyl-[4-benzyl-2-({4-[(4-chlorophenyl)-dimethylaminomethyl]-cyclohexyl}-diethylaminomethyl)-oxazol-5-yl]-methylamine] was 72%; that for `CN(C)C(c1cccs1)C1CCC(C(c2nc(Cc3ccccc3)c(N3CCC(Cc4ccccc4)CC3)o2)N2CCCCC2)CC1` (centres unmarked) [compound 23, [(4-{[4-benzyl-5-(4-benzyl-piperidin-1-yl)-oxazol-2-yl]-piperidin-1-yl-methyl}-cyclohexyl)-thiophen-2-yl-methyl]-dimethylamine] was 70%. Same read-out and setting: as for `CC1CCN(c2oc(C(C3CCC(C(c4cccs4)N(C)C)CC3)N3CCCCC3)nc2Cc2ccccc2)CC1` (centres unmarked) [compound 24, [(4-{[4-benzyl-5-(4-methylpiperidin-1-yl)-oxazol-2-yl]-piperidin-1-yl-methyl}-cyclohexyl)-thiophen-2-yl-methyl]-dimethylamine], the figure is 70%. On to `CN(Cc1ccccc1)c1oc(C(C2CCC(C(c3cccs3)N(C)C)CC2)N2CCCCC2)nc1Cc1ccccc1` (centres unmarked) [compound 25, Benzyl-(4-benzyl-2-{[4-(dimethylamino-thiophen-2-yl-methyl)-cyclohexyl]-piperidin-1-yl-methyl}-oxazol-5-yl)-methylamine], for which the inhibition at 1 µM was determined as 80%. In the case of `CN(C)C(c1cccs1)C1CCC(C(c2nc(Cc3ccccc3)c(N3CCN(c4ccccc4)CC3)o2)N2CCCCC2)CC1` (centres unmarked) [compound 26, [(4-{[4-benzyl-5-(4-phenylpiperazin-1-yl)-oxazol-2-yl]-piperidin-1-yl-methyl}-cyclohexyl)-thiophen-2-yl-methyl]-dimethylamine], the inhibition at 1 µM stood at 85%.

With `CCN(CC)C(c1nc(Cc2ccccc2)c(N2CCC(Cc3ccccc3)CC2)o1)C1CCC(C(c2cccs2)N(C)C)CC1` (centres unmarked) [compound 27, {[4-benzyl-5-(4-benzyl-piperidin-1-yl)-oxazol-2-yl]-[4-(dimethylamino-thiophen-2-yl-methyl)-cyclohexyl]-methyl}-diethylamine], the inhibition at 1 µM was determined as 78%. On the same count and under the same terms, as for `CCN(CC)C(c1nc(Cc2ccccc2)c(N2CCN(Cc3ccccc3)CC2)o1)C1CCC(C(c2cccs2)N(C)C)CC1` (centres unmarked) [compound 28, {[4-benzyl-5-(4-benzyl-piperazin-1-yl)-oxazol-2-yl]-[4-(dimethylamino-thiophen-2-yl-methyl)-cyclohexyl]-methyl}-diethylamine], the figure is 72%. With `CCN(CC)C(c1nc(Cc2ccccc2)c(N2CCC(C)CC2)o1)C1CCC(C(c2cccs2)N(C)C)CC1` (centres unmarked) [compound 29, {[4-benzyl-5-(4-methylpiperidin-1-yl)-oxazol-2-yl]-[4-(dimethylamino-thiophen-2-yl-methyl)-cyclohexyl]-methyl}-diethylamine], the inhibition at 1 µM was determined as 95%. Turning to `CCN(CC)C(c1nc(Cc2ccccc2)c(N(C)Cc2ccccc2)o1)C1CCC(C(c2cccs2)N(C)C)CC1` (centres unmarked) [compound 30, Benzyl-(4-benzyl-2-{diethylamino-[4-(dimethylaminothiophen-2-yl-methyl)-cyclohexyl]-methyl}-oxazol-5-yl)-methylamine], the inhibition at 1 µM was 92%.

On to `CCN(CC)C(c1nc(Cc2ccccc2)c(N2CCN(c3ccccc3)CC2)o1)C1CCC(C(c2cccs2)N(C)C)CC1` (centres unmarked) [compound 31, {[4-benzyl-5-(4-phenylpiperazin-1-yl)-oxazol-2-yl]-[4-(dimethylamino-thiophen-2-yl-methyl)-cyclohexyl]-methyl}-diethylamine], for which the inhibition at 1 µM was determined as 62%. Same read-out and setting: the value for `CN(C)C(c1cccs1)C1CCC(C(c2nc(Cc3ccccc3)c(N3CCC(Cc4ccccc4)CC3)o2)N2CCN(Cc3ccccc3)CC2)CC1` (centres unmarked) [compound 32, ({4-[[4-benzyl-5-(4-benzylpiperidin-1-yl)-oxazol-2-yl]-(4-benzylpiperazin-1-yl)-methyl]-cyclohexyl}-thiophen-2-yl-methyl)-dimethylamine] was 75%. For the compound `CC1CCCN(c2oc(C(C3CCC(C(c4ccc(F)cc4)N(C)C)CC3)N3CCCCC3)nc2Cc2ccccc2)C1` (centres unmarked) [compound 33, [(4-{[4-benzyl-5-(3-methylpiperidin-1-yl)-oxazol-2-yl]-piperidin-1-yl-methyl}-cyclohexyl)-(4-fluorophenyl)-methyl]-dimethylamine], the inhibition at 1 µM amounted to 65%. For `CCN(CC)C(c1nc(Cc2ccccc2)c(N(C)CCc2ccccc2)o1)C1CCC(C(c2ccc(F)cc2)N(C)C)CC1` (centres unmarked) [compound 34, [4-benzyl-2-(diethylamino-{4-[dimethylamino-(4-fluorophenyl)-methyl]-cyclohexyl}-methyl)-oxazol-5-yl]-methylphenethylamine], the inhibition at 1 µM was found to be 84%. Turning to `CCN(CC)c1oc(C(C2CCC(C(c3ccc(F)cc3)N(C)C)CC2)N(CC)CC)nc1Cc1ccccc1` (centres unmarked) [compound 35, [4-benzyl-2-(diethylamino-{4-[dimethylamino-(4-fluorophenyl)-methyl]-cyclohexyl}-methyl)-oxazol-5-yl]-diethylamine], the inhibition at 1 µM is 61%. For `CCN(CC)C(c1nc(Cc2ccccc2)c(N2CCCC(C)C2)o1)C1CCC(C(c2ccc(F)cc2)N(C)C)CC1` (centres unmarked) [compound 36, ([4-benzyl-5-(3-methylpiperidin-1-yl)-oxazol-2-yl]-{4-[dimethylamino-(4-fluorophenyl)-methyl]-cyclohexyl}-methyl)-diethylamine], the inhibition at 1 µM was 69%.
